Data: US20240025912A1 (Merck Sharp & Dohme LLC, priority 2022, published 2024)

target: GST-RIPK1 (recombinant GST-RIPK1 kinase domain (residues 1-327)) (Homo sapiens (Human), UniProt Q13546); assay: RIPK1-ADP-Glo Enzymatic Assay; assay type: biochemical; settings: 25 nM GST-RIPK1, 300 μM ATP, 3 μM dephosphorylated-MBP, 30 min pre-incubation, 150 min reaction
In short: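 GST-RIPK1 kinase domain (1-327, Sf21-expressed), 25 nM final, pre-incubated 30 min with compound (1% DMSO), then reacted 150 min with 300 μM ATP and 3 μM dephosphorylated MBP in HEPES pH 7.3/MgCl2 buffer. ADP measured by ADP-Glo luminescence; EC50 from 10-point 1:3 titrations (top 100000 nM), four-parameter fit.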

Chain of GST-RIPK1 (recombinant GST-RIPK1 kinase domain (residues 1-327)) (Q13546 1-327): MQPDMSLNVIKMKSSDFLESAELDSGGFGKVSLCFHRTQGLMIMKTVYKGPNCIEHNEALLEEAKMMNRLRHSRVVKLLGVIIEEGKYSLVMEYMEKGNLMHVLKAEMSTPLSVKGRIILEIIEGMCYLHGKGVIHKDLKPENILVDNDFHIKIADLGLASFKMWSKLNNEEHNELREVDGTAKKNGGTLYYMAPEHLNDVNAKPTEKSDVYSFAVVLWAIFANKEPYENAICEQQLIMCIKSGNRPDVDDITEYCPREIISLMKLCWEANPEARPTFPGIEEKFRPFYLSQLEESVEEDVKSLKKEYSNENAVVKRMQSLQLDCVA

Row | Compound | EC50 [nM]
1 | O=c1n(C23CC(F)(C2)C3)nc2n1[C@H](c1ccccc1)COC2 [Compound 1-78, (R)-2-(3-fluorobicyclo[1.1.1]pentan-1-yl)-5-phenyl-2,5,6,8-tetrahydro-3H-[1,2,4]triazolo[3,4-c][1,4]oxazin-3-one] | 93.9
2 | N#CC12CC(n3nc4n(c3=O)[C@H](c3cc(F)cc(F)c3)COC4)(C1)C2 [Compound 1-79, (R)-3-(5-(3,5-difluorophenyl)-3-oxo-5,6-dihydro-3H-[1,2,4]triazolo[3,4-c][1,4]oxazin-2(8H)-yl)bicyclo[1.1.1]pentane-1-carbonitrile] | 108
3 | O=c1n(C23CC(F)(C2)C3)nc2n1[C@H](c1ccccc1)CCC2 [Compound 1-80, (S)-2-(3-fluorobicyclo[1.1.1]pentan-1-yl)-5-phenyl-5,6,7,8-tetrahydro-[1,2,4]triazolo[4,3-a]pyridin-3(2H)-one] | 73.3
4 | N#CC12CC(n3nc4n(c3=O)[C@H](c3cc(F)cc(F)c3)CC4)(C1)C2(F)F [Compound 3-1, 3-[(5S)-5-(3,5-difluorophenyl)-3-oxo-6,7-dihydro-3H-pyrrolo[2,1-c][1,2,4]triazol-2(5H)-yl]-2,2-difluorobicyclo[1.1.1]pentane-1-carbonitrile] | 20
5 | COC(=O)C12CC(n3nc4n(c3=O)[C@H](c3ccccc3)CC4)(C1)C2(F)F [Compound 3-2, methyl (S)-2,2-difluoro-3-(3-oxo-5-phenyl-6,7-dihydro-3H-pyrrolo[2,1-c][1,2,4]triazol-2(5H)-yl)bicyclo[1.1.1]pentane-1-carboxylate] | 143
6 | N#CC12CC(n3nc4n(c3=O)[C@H](c3ccccc3)CC4)(C1)C2(F)F [Compound 3-3, 2,2-difluoro-3-[(5S)-3-oxo-5-phenyl-6,7-dihydro-3H-pyrrolo[2,1-c][1,2,4]triazol-2(5H)-yl]bicyclo[1.1.1]pentane-1-carbonitrile] | 45

The remaining lines, values ahead:

Row | EC50 [nM] | Compound
7 | 49.5 | Cc1ccc([C@@H]2CCc3nn(C45CC(C#N)(C4)C5)c(=O)n32)cc1 [Compound 4-7, (S)-3-(3-oxo-5-(p-tolyl)-6,7-dihydro-3H-pyrrolo[2,1-c][1,2,4]triazol-2(5H)-yl)bicyclo[1.1.1]pentane-1-carbonitrile]
8 | 165 | N#CC12CC(n3nc4n(c3=O)[C@H](c3cnccn3)CC4)(C1)C2 [Compound 4-8, (S)-3-(3-oxo-5-(pyrazin-2-yl)-6,7-dihydro-3H-pyrrolo[2,1-c][1,2,4]triazol-2(5H)-yl)bicyclo[1.1.1]pentane-1-carbonitrile]
9 | 17 | Cc1cc(F)cc([C@@H]2CCc3nn(C45CC(F)(C4)C5)c(=O)n32)c1 [Compound 4-9, (S)-5-(3-fluoro-5-methylphenyl)-2-(3-fluorobicyclo[1.1.1]pentan-1-yl)-2,5,6,7-tetrahydro-3H-pyrrolo[2,1-c][1,2,4]triazol-3-one]
10 | 62.9 | O=c1n(C23CC(F)(C2)C3)nc2n1[C@H](c1ccc(C(F)F)cc1)CC2 [Compound 4-10, (S)-5-(4-(difluoromethyl)phenyl)-2-(3-fluorobicyclo[1.1.1]pentan-1-yl)-2,5,6,7-tetrahydro-3H-pyrrolo[2,1-c][1,2,4]triazol-3-one]
11 | 108 | O=c1n(C23CC(F)(C2)C3)nc2n1[C@H](c1ccc(C3CC3)cc1)CC2 [Compound 4-11, (S)-5-(4-cyclopropylphenyl)-2-(3-fluorobicyclo[1.1.1]pentan-1-yl)-2,5,6,7-tetrahydro-3H-pyrrolo[2,1-c][1,2,4]triazol-3-one]
12 | 84 | O=c1n(C23CC(F)(C2)C3)nc2n1[C@H](c1cnccn1)CC2 [Compound 4-12, (S)-2-(3-fluorobicyclo[1.1.1]pentan-1-yl)-5-(pyrazin-2-yl)-2,5,6,7-tetrahydro-3H-pyrrolo[2,1-c][1,2,4]triazol-3-one]
13 | 79.8 | Cc1cncc([C@@H]2CCc3nn(C45CC(F)(C4)C5)c(=O)n32)n1 [Compound 4-13, (S)-2-(3-fluorobicyclo[1.1.1]pentan-1-yl)-5-(6-methylpyrazin-2-yl)-2,5,6,7-tetrahydro-3H-pyrrolo[2,1-c][1,2,4]triazol-3-one]
14 | 198 | Cc1cnc([C@@H]2CCc3nn(C45CC(F)(C4)C5)c(=O)n32)cn1 [Compound 4-14, (S)-2-(3-fluorobicyclo[1.1.1]pentan-1-yl)-5-(5-methylpyrazin-2-yl)-2,5,6,7-tetrahydro-3H-pyrrolo[2,1-c][1,2,4]triazol-3-one]
15 | 341 | Cc1ccccc1[C@@H]1CCc2nn(C34CC(F)(C3)C4)c(=O)n21 [Compound 4-15, (S)-2-(3-fluorobicyclo[1.1.1]pentan-1-yl)-5-(o-tolyl)-2,5,6,7-tetrahydro-3H-pyrrolo[2,1-c][1,2,4]triazol-3-one]
16 | 496 | O=c1n(C23CC(F)(C2)C3)nc2n1[C@H](c1cnc(C(F)(F)F)cn1)CC2 [Compound 4-16, (S)-2-(3-fluorobicyclo[1.1.1]pentan-1-yl)-5-(5-(trifluoromethyl)pyrazin-2-yl)-2,5,6,7-tetrahydro-3H-pyrrolo[2,1-c][1,2,4]triazol-3-one]
17 | 38.8 | O=c1n(C23CC(F)(C2)C3)nc2n1[C@H](c1cnccn1)C[C@@H]2F [Compound 4-17, (5S,7S)-7-fluoro-2-(3-fluorobicyclo[1.1.1]pentan-1-yl)-5-(pyrazin-2-yl)-2,5,6,7-tetrahydro-3H-pyrrolo[2,1-c][1,2,4]triazol-3-one]
18 | 78.3 | O=c1n(C23CC(F)(C2)C3)nc2n1[C@H](c1cc(F)cc(F)c1)C[C@H]2O [Compound 5-1, (5S,7R)-5-(3,5-difluorophenyl)-2-(3-fluorobicyclo[1.1.1]pentan-1-yl)-7-hydroxy-2,5,6,7-tetrahydro-3H-pyrrolo[2,1-c][1,2,4]triazol-3-one]
19 | 25.7 | O=c1n(C23CC(F)(C2)C3)nc2n1[C@H](c1cc(F)cc(F)c1)C[C@@H]2O [Compound 5-2, (5S,7S)-5-(3,5-difluorophenyl)-2-(3-fluorobicyclo[1.1.1]pentan-1-yl)-7-hydroxy-2,5,6,7-tetrahydro-3H-pyrrolo[2,1-c][1,2,4]triazol-3-one]
20 | 90.2 | N#CC12CC(n3nc4n(c3=O)[C@H](c3ccc(C(F)F)cc3)CC4)(C1)C2 [Compound 7-1, (S)-3-(5-(4-(difluoromethyl)phenyl)-3-oxo-6,7-dihydro-3H-pyrrolo[2,1-c][1,2,4]triazol-2(5H)-yl)bicyclo[1.1.1]pentane-1-carbonitrile]
